Columns and labels:
[1] = target: T1, 12-LO (Homo sapiens, UniProt P18054); assay: 12-HETE formation in intact PMNL preparations, A23187 + 20 µM AA; format: cell-based; conditions: 15 min preincubation, A23187 2.5 µM + 20 µM AA, n.i. = no inhibition observed
T1 construct: endogenous in cells; host or cells: platelet impurities in human PMNL preparations
T1 sequence (P18054 1-663): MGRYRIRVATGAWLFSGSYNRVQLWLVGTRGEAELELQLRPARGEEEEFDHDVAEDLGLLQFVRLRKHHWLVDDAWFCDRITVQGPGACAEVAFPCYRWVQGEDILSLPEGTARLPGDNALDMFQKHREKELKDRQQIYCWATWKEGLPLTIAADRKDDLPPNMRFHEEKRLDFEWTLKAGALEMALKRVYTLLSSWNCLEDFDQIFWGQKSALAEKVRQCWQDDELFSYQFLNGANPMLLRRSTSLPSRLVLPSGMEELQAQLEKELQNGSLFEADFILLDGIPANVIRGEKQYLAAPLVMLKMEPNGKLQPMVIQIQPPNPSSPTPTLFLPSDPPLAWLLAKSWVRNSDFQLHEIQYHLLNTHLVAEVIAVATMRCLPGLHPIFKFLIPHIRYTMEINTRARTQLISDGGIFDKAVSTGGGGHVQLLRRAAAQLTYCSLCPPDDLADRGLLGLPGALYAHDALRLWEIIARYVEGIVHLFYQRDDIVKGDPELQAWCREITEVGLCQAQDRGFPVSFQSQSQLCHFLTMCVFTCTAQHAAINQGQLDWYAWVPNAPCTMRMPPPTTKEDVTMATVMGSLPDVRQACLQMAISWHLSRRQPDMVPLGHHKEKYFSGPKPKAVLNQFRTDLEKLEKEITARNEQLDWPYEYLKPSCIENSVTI
Experimental: Buffy coats from different donors of different blood types were commercially obtained from DRK Blutspendedienst Baden-Württemberg Institute Frankfurt. Donors have given their written consent. […] Following separation, the supernatant was transferred very gently to new 50-ml tubes containing lymphocyte separation medium (LSM) and centrifuged for 10 min at 800 ×g at RT with the centrifuge brake turned off. Afterwards, the supernatant was decanted carefully to discard the platelets and monocytes. The PMNL were washed with 1× PBS before the residual erythrocytes were lysed in two cycles: the cell pellet was resuspended with 10 ml H2O and vortexed for 45 s, and lysis was stopped with 40 ml 1 × PBS. After 10-min centrifugation at 200 ×g at RT, the cycle was repeated once. The supernatant was aspirated, the cell pellet resuspended in 5 ml PBS/glucose and initially separated PMNL preparations with different blood types were finally pooled to gain a sufficient number of cells. […] The enzyme was diluted in PBS/EDTA/ATP, transferred into 5-ml glass tubes, and stored on ice. […] The reaction was stopped by placing the glass tubes on ice. The supernatants were transferred to 1.5 ml reaction tubes and stored at −80°C before LC-MS (liquid chromatography and mass spectrometry) analysis of LTB4 and HETEs as described in 2.6 at the Institute of Pharmacology, Goethe University, University Hospital, Germany. The lipid mediators LTB4, hydroxyeicosatetraenoic acids, 5(S)-HETE, 12(S)-HETE, 15(S)-HETE and 20-HETE were analyzed using liquid chromatography tandem-mass spectroscopy (LC-MS/MS). The LC-MS/MS system consisted of a 5500 QTrap mass spectrometer (Sciex, Darmstadt, Germany), operating in negative ESI mode, an Agilent 1200 HPLC system (Agilent, Waldbronn, Germany) and an HTC Pal autosampler (Chromtech, Idstein, Germany). Sample extraction of LTB4 and HETEs were performed using liquid-liquid extraction: 200 µl of the sample were gently mixed with 20 µl of methanol and 20 µl of internal standard solution and extracted twice with 600 µl ethyl acetate. […] Working solutions of all analytes were prepared in methanol containing 0.1% BHT. The calibration standards were prepared by further dilution of the working standards. […] The residues were reconstituted in 50 µl of methanol:water:BHT (50:50:10^−4, v/v/v) prior to injection into the LC-MS/MS system. Chromatographic separation was achieved using a Gemini NX C18 column (150 mm × 2 mm ID, 5 µm, Phenomenex, Aschaffenburg, Germany) with a precolumn of the same material. A linear gradient was employed at a flow rate of 0.5 ml/min and a total run time of 17.5 min. Mobile phases were A water:ammonia (100:0.05, v/v) and B acetonitrile:ammonia (100:0.05, v/v). […] All data were acquired using Analyst software v1.6.2 and quantitation was performed by MultiQuant software v3.0 (both Sciex, Darmstadt, Germany) using the internal standard method (isotope-dilution mass spectrometry). Calibration curves were calculated by linear regression with 1/x.

[2] = tested on: HT-29 cells; assay: WST-1 cell viability assay, HT-29; format: cell-based, human; conditions: n.i. = no inhibition observed; for IC50: Homo sapiens, HT-29, 48 h
Experimental: Cell viability was analyzed with the WST-1 assay based on the cleavage of the stable tetrazolium salt WST-1 by the mitochondrial reductase system. Cells were seeded in the appropriate densities in a clear 96-well plate and settled overnight at 37°C in 5% CO2. The next day, the cells were treated with NFA or the substances of interest (≤0.1% dimethyl sulfoxide [DMSO]) and incubated for 24 or 48 h at 37°C in 5% CO2. Cell viability was analyzed by adding 10 µl WST-1 solution (Roche, Basel, Switzerland) and subsequently incubating the cells at 37°C for another 30–40 min. Absorbance was measured at 450 nm with a control wavelength at 620 nm using a plate reader.
Besides targeting the NF-κB pathway, the anti-tumorigenic effects of NFA can be observed by a reduction of colorectal cancer cell viability. […] Again, the cytotoxic effects of NFA were determined in HCT-116 and HT-29 colorectal cancer cells in the present study. […] HCT-116 cells were treated with increasing concentrations of NFA differing in chain length and Michael acceptor position for 24 h, and cell viability was determined using the WST-1 assay. Due to their prolonged cell division rate and their lack of sensitivity towards NFA ([Kühn et al., 2018]), HT-29 cells were treated for 48 h to gain improved NFA activity.

For `CCCCCCCC=C(CCCCCCCCC(=O)O)[N+](=O)[O-]` [18.10.10, 10-nitro-octadec-10-enoic acid], the “PMNL (20 µM AA) 12-HETE IC50” value [1] was “n.i” and the IC50 [2] was 13.9 ± 1.1 µM.
For `CCCCCCCCCCCCCC=C(CCC(=O)O)[N+](=O)[O-]` [18.4.4, 4-nitro-octadec-4-enoic acid], the “PMNL (20 µM AA) 12-HETE IC50” value [1] was “n.i” and the IC50 [2] was 23.9 ± 1.1 µM.
With `CCCCCCCC/C=C\CCCCCCCC(=O)O` [OA, oleic acid, reference compound] the “PMNL (20 µM AA) 12-HETE IC50” value [1] was “not affected and n.i” and the “HT-29 (48 h) IC50” value [2] was “failed to induce cytotoxic effects and n.i”.
For `CCCCCCCCCCC=C(CCCCCC(=O)O)[N+](=O)[O-]` [18.7.7, 7-nitro-octadec-7-enoic acid], the “PMNL (20 µM AA) 12-HETE IC50” value [1] was “n.i” and the IC50 [2] was 4.4 ± 1.1 µM.
With `CCCCCCC=C(CCCCCCCC(=O)O)[N+](=O)[O-]` [16.9.9, 9-nitro-hexadec-9-enoic acid] the “PMNL (20 µM AA) 12-HETE IC50” value [1] was “n.i” and the IC50 [2] was 12.7 ± 1.1 µM.
`CCCCCCCCCCCC(=CCCCCC(=O)O)[N+](=O)[O-]` [18.6.7, 7-nitro-octadec-6-enoic acid] was tested, and the “PMNL (20 µM AA) 12-HETE IC50” value [1] was “n.i” and the IC50 [2] was 13.8 ± 1.1 µM.
`CCCCCCCCC=C(CCCCCCCC(=O)O)[N+](=O)[O-]` [18.9.9, 9-nitro-octadec-9-enoic acid] was tested, and the “PMNL (20 µM AA) 12-HETE IC50” value [1] was “n.i” and the IC50 [2] was 8.8 ± 1.1 µM.
For `CCCCCCC=C(CCCCCCCCCC(=O)O)[N+](=O)[O-]` [18.11.11, 11-nitro-octadec-11-enoic acid], the “PMNL (20 µM AA) 12-HETE IC50” value [1] was “n.i” and the IC50 [2] was 16.6 ± 1.1 µM.
`CCCCC=C(CCCCCCCC(=O)O)[N+](=O)[O-]` [14.9.9, 9-nitro-tetradec-9-enoic acid] was tested, and the “PMNL (20 µM AA) 12-HETE IC50” value [1] was “n.i” and the IC50 [2] was 27.4 ± 1 µM.
`CCCCCCCCCCCCC=C(CCCC(=O)O)[N+](=O)[O-]` [18.5.5, 5-nitro-octadec-5-enoic acid] was tested, and the “PMNL (20 µM AA) 12-HETE IC50” value [1] was “n.i” and the IC50 [2] was 18.5 ± 1.1 µM.
In the case of `CCC=C(CCCCCCCC(=O)O)[N+](=O)[O-]` [12.9.9, 9-nitro-dodec-9-enoic acid], the “PMNL (20 µM AA) 12-HETE IC50” value [1] is reported as “n.i” and the IC50 [2] is reported as about 31.5 µM.
For `CCCCCCCCC(=CCCCCCCCC(=O)O)[N+](=O)[O-]` [18.9.10, 10-nitro-octadec-9-enoic acid], the “PMNL (20 µM AA) 12-HETE IC50” value [1] was “n.i” and the IC50 [2] was 15.7 ± 1.1 µM.
In the case of `CCCCCCCCCCCC=C(CCCCC(=O)O)[N+](=O)[O-]` [18.6.6, 6-nitro-octadec-6-enoic acid], the “PMNL (20 µM AA) 12-HETE IC50” value [1] is reported as “n.i” and the IC50 [2] is reported as 11.1 ± 1.1 µM.
In the case of `CCCCCCCCCC(=CCCCCCCC(=O)O)[N+](=O)[O-]` [18.8.9, 9-nitro-octadec-8-enoic acid], the “PMNL (20 µM AA) 12-HETE IC50” value [1] is reported as “n.i” and the IC50 [2] is reported as 8 ± 1.1 µM.
For `CCCCCCCCCCC=C(CCCCCCCC(=O)O)[N+](=O)[O-]` [20.9.9, 9-nitro-eicos-9-enoic acid], the “PMNL (20 µM AA) 12-HETE IC50” value [1] was “n.i” and the IC50 [2] was 8.1 ± 1.1 µM.
In the case of `CCCCCCCCCC=C(CCCCCCC(=O)O)[N+](=O)[O-]` [18.8.8, 8-nitro-octadec-8-enoic acid], the “PMNL (20 µM AA) 12-HETE IC50” value [1] is reported as “n.i” and the IC50 [2] is reported as 3.3 ± 1.1 µM.
